Values quoted from earlier work, collected in patent publication US10034864B2, “1,2,5-oxadiazoles as inhibitors of indoleamine 2,3-dioxygenase” (Incyte Corporation, priority 2008, dated 2018).

Tests used:
LLC tumors = LLC tumors in C57Bl/6 mice, versus placebo (Friberg 2002)
P815 tumor = settings: pre-immunized immune-competent mice challenged with tumor cells (Uyttenhove 2003)

**Q.** For `Cn1cc(C[C@H](N)C(=O)O)c2ccccc21` [Example 1-MT, 1-methyl-tryptophan], which formation of tumors (LLC tumors) is on record?
**A.** The formation of tumors was “markedly delayed”.

**Q.** What about the growth of tumors (P815 tumor) of the same molecule?
**A.** The growth of tumors was “inhibited”.
